# Assay results: patent US12297164B2, “Benzidine compound and application thereof” (Guangzhou IMD therapeutics Co., Ltd., priority 2019, dated 2025)
# Read-outs that look alike come from different tables or passages of the source.
# Columns and labels:
# [1] = target: T1, RORγ (Homo sapiens (Human), UniProt P51449); test: Luciferase double reporter gene assay (Gal4-RORγLBD) in 293T cells; type: cell-based; settings: 24 hours of incubation
# Protocol: The cells were cultured in a 96-well plate one day before transfection, with a cell density of 1.5×10^4 cells/well. After 24 hours of adherent growth, the cells were subjected to transient transfection by using the method of double reporter gene co-transfection with the transfection reagent of Lipo-fectamine 2000, where the transfection reagent and plasmids were diluted with Opti-MEM reagent, respectively. […] Each sample had 3 duplicate wells.
# Target sequence in this assay (P51449 269-508): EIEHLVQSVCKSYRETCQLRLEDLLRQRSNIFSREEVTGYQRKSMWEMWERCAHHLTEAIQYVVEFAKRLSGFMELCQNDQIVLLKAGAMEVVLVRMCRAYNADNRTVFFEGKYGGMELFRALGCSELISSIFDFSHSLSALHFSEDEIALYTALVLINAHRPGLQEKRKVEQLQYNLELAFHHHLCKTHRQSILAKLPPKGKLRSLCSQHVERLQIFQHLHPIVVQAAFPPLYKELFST
# [2] = target: T1, RORγ; test: ITC binding activity; settings: read-out: Kd ITC, 25° C., pH 7.5
# Target sequence in this assay (P51449 whole entry, the tested form may be a part): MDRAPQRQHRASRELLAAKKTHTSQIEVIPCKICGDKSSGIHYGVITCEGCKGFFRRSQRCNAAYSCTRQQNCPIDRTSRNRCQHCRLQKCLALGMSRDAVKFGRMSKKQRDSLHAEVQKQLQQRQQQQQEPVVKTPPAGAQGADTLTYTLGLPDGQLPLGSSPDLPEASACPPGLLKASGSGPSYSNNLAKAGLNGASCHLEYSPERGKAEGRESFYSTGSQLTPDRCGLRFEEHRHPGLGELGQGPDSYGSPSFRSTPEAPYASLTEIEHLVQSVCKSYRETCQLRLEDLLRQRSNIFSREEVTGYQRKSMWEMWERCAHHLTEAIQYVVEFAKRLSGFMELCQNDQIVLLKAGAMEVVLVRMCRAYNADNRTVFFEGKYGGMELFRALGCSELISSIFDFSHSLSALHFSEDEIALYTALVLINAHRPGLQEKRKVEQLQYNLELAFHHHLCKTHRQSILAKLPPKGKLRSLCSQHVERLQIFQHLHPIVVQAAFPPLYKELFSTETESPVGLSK
# [3] = target: T1, RORγ; test: TSA detection (thermal shift); type: binding; settings: protein 10 μM
# Protocol: Experimental materials: hRORγ protein, fluorescent dye Sypro Orange, 10p buffer, ultrapure water, and HSP-96 well reaction plates.
# Experimental method: The diluted protein (with the final concentration of 10 μM), fluorescent dye (with the final concentration of 5×), 10× TSA buffer, and double distilled water were prepared into a mixed solution with final component volumes of 1 μL, 1 μL, 1 μL, and 2 μL, receptively. The mixed solution was transferred to an HSP-96 well reaction plate, 5 μL each well. The ligand, i.e., small molecule compound, was added, 5 μL per well, with the final concentration of 200 µM. The mixture was centrifuged at room temperature at 1000 rpm for 1 minute to make the system fully mixed. The mixture was placed on an ice bath in low light for more than 30 minutes, and after that, put into RT-PCR instrument for testing. The temperature was set from 30° C. to 80° C., and the mixture was detected every time the temperature was raised by 0.5° C. and every 5 seconds.
# Target sequence in this assay (P51449 whole entry, the tested form may be a part): as above
# [4] = tested on: Du145 (AR-negative prostate cancer); test: Cell-Titer GLO cell inhibition; type: cell-based; settings: Homo sapiens, DU-145
# Excerpt: (§1) The inhibition curve was fitted by GraphPad Prism software to obtain IC50.
# [5] = tested on: PC-3 (AR-negative prostate cancer); test: Cell-Titer GLO cell inhibition; type: cell-based
# Excerpt: as §1
# [6] = target: T1, RORγ; test: AlphaScreen inhibitory activity on RORγ protein; type: biochemical; settings: RORγ 200 nM, bSRC1-4 50 nM
# Protocol: Experimental materials: target protein RORγ with the final concentration of 200 nM; experimental buffer (10×) MOPS (500 mM) PH 7.4, CHAPS (0.5 mM), NaF (500 mM), and
# The mixture was centrifuged at room temperature at 1000 rpm for 1 minute to make the system fully mixed. After being wrapped in tin foil, the mixture was incubated in the dark for 1.5 hours.
# Target sequence in this assay (P51449 whole entry, the tested form may be a part): as above
# [7] = Pharmacokinetics in SD rats; settings: for F: oral administration 10 mg/kg vs intravenous 2 mg/kg
# Protocol: MATERIALS: Pharmacokinetic analysis was performed by Medicilon Corporation in Shanghai. Twelve Sprague and Dawley rats were provided by Super-B&K laboratory animal Corp. Ltd in Shanghai.
# Experimental method: The compound was dissolved in DMSO:PEG 400:20% HP-400 (5:40:55, v:v:v) to serve as a stock solution (0.4 mg/ml, intravenous injection; 1 mg/ml, oral administration). The stock solution was administrated orally to three SD rats at a dose of 10 mg/kg, and administrated intravenously to three SD rats at a single dose of 2 mg/kg. Blood was collected from the jugular vein before oral administration and at 0.25, 0.5, 1, 2, 4, 6, 8, and 24 hours after oral administration. Blood was collected from the jugular vein before intravenous injection and at 0.083, 0.25, 0.5, 1, 2, 4, 6, 8, and 24 hours after intravenous injection. About 200 μL of blood sample was collected into a heparinized tube and immediately centrifuged at 8000 rpm for 6 minutes, and the resulting plasma was stored at −80° C. until analysis.
# [8] = tested on: H1975 (lung cancer cells); test: Cell-Titer GLO cell inhibition; type: cell-based; settings: Homo sapiens, NCI-H1975
# Protocol: (§2) Experimental materials: fluorescence signal detection instrument: EnSpire Alpha 2390 multifunctional microplate reader (produced by Perkin Elmer Company); 384-well bottom permeable microwell plate; Cell-Titer GLO luminescent reagent; cancer cells to be tested; medium and fetal bovine serum required for cell culture.
# (§3) […]. After incubation with the compound for 72 to 144 hours, Cell-Titer GLO reagent 25-T was added to each well, and the plate was shaken for 20 minutes to lyse the cells. After incubation for 10 minutes, the cells were centrifuged for 1 minute, the signal value of luminescence 384 was measured. The inhibition curve was fitted by GraphPad Prism software to obtain IC50.
# [9] = tested on: Cos7 (African green monkey kidney cells); test: Cell-Titer GLO cell inhibition; type: cell-based; settings: Chlorocebus sabaeus, COS-7
# Protocol: as §2, §3
# [10] = tested on: HT-29 (colon cancer); test: Cell-Titer GLO cell inhibition; type: cell-based; settings: Homo sapiens
# Protocol: as §2, §3
# [11] = tested on: MV-4-11 (acute leukemia); test: Cell-Titer GLO cell inhibition; type: cell-based; settings: Homo sapiens, MV4-11
# Protocol: as §2, §3
# [12] = tested on: Hs578T (triple negative breast cancer); test: Cell-Titer GLO cell inhibition; type: cell-based; settings: Homo sapiens, Hs-578T
# Protocol: as §2, §3
# [13] = tested on: 293T (human renal epithelial cell line transfected with adenovirus E1A gene, expressing SV40 large T antigen); test: Cell-Titer GLO cell inhibition; type: cell-based; settings: Homo sapiens, HEK-293T
# Protocol: as §2, §3
# [14] = tested on: HFL-1 (lung fibroblasts); test: Cell-Titer GLO cell inhibition; type: cell-based; settings: Homo sapiens, HFL1
# Protocol: as §2, §3
# [15] = tested on: Hela (cervical cancer cells); test: Cell-Titer GLO cell inhibition; type: cell-based; settings: Homo sapiens
# Protocol: as §2, §3
# [16] = tested on: A549 (non-small cell lung cancer); test: Cell-Titer GLO cell inhibition; type: cell-based; settings: Homo sapiens
# Protocol: as §2, §3
# [17] = tested on: U2OS (osteosarcoma); test: Cell-Titer GLO cell inhibition; type: cell-based; settings: Homo sapiens
# Protocol: as §2, §3
# [18] = tested on: MDA-MB-231 (triple negative breast cancer); test: Cell-Titer GLO cell inhibition; type: cell-based; settings: Homo sapiens
# Protocol: as §2, §3
# [19] = tested on: VcaP (AR-positive prostate cancer); test: Cell-Titer GLO cell inhibition; type: cell-based; settings: Homo sapiens, VCaP
# Protocol: as §2, §3
# [20] = tested on: HL-7702 (liver epithelial cells); test: Cell-Titer GLO cell inhibition; type: cell-based; settings: Homo sapiens, L02
# Protocol: as §2, §3
# [21] = tested on: MCF-7 (ER + breast cancer); test: Cell-Titer GLO cell inhibition; type: cell-based; settings: Homo sapiens, MCF7
# Protocol: as §2, §3
# [22] = target: T1, RORγ; test: Specificity luciferase reporter assay in 293T cells, RORγ; settings: read-out: IC50 RORγ, reporter gene
# Target sequence in this assay (P51449 269-508): as the sequence (P51449 269-508) above
# Protocol: The cells were cultured in a 96-well plate one day before transfection, with a cell density of 1.5×10^4 cells/well. After 24 hours of adherent growth, the cells were subjected to transient transfection by using the method of double reporter gene co-transfection with the transfection reagent of Lipo-fectamine 2000, and the transfection reagent and plasmids were diluted with Opti-MEM reagent, respectively. Gal4-RORγLBD was 25 ng per well; PG5-luc gene was 25 ng per well; and Renilla was 5 ng per well. After 24 hours of co-transfection, different concentrations of compounds were added. After 24 hours of incubation, Luciferase double reporter gene detection kit was used to detect luminescence signals. Each sample had 3 duplicate wells. The IC50 value (half inhibitory concentration) was calculated by software.
# [23] = tested on: 22Rv1 (AR-positive prostate cancer); test: Cell-Titer GLO cell inhibition; type: cell-based; settings: Homo sapiens
# Excerpt: as §1
# [24] = target: RORα (Homo sapiens (Human), UniProt P35398); test: Specificity luciferase reporter assay in 293T cells, RORα; type: cell-based; settings: reporter gene
# Protocol: The cells were cultured in a 96-well plate one day before transfection, with a cell density of 1.5×10^4 cells/well. After 24 hours of adherent growth, the cells were subjected to transient transfection by using the method of double reporter gene co-transfection with the transfection reagent of Lipo-fectamine 2000, and the transfection reagent and plasmids were diluted with Opti-MEM reagent, respectively. […] Each sample had 3 duplicate wells.
# [25] = SD rats, intravenous injection, 2 mg/kg
# [26] = Sprague-Dawley, rat, in vivo, iv, 2 mg/kg
# [27] = Sprague-Dawley, rat, in vivo, po, 10 mg/kg
# Sequence of RORα (P35398 whole entry): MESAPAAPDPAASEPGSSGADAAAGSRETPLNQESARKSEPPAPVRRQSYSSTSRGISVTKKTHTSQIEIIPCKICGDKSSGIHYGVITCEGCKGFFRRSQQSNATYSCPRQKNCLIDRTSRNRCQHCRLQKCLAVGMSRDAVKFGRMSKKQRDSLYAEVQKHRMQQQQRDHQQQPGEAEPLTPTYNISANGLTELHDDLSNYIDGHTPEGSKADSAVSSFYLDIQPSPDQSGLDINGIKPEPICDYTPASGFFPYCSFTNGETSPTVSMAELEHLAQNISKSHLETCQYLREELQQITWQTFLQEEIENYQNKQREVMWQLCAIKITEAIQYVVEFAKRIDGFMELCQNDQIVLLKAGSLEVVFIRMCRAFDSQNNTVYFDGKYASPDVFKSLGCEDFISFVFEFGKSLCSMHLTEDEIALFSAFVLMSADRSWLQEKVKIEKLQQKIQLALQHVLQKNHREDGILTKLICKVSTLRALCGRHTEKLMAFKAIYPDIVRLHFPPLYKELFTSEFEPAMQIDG
smiles,measurement,setting,value
"CS(=O)(=O)c1ccc(CC(=O)Nc2ccc(-c3ccc(C(O)(C(F)(F)F)C(F)(F)F)cc3F)cc2)cc1 [Example 1, N-(2′-fluoro-4′-(1,1,1,3,3,3-hexafluoro-2-hydroxypropan-2-yl)-[1,1′-biphenyl]-4-yl)-2-(4-(methylsulfonyl)phenyl)acetamide]",IC50,[1],0.12 µM
same,Kd,[2],0.56 µM
same,ΔTm,[3],7.8 °C
same,IC50,[4],19.1 µM
same,IC50,[5],16 µM
same,IC50,[6],2.28 ± 0.05 µM
same,Cl,[7]; [25],3.2288 ± 0.2047 mL/min/kg
same,Vz,[7]; [25],3.54 ± 0.271 L/kg
same,F,[7]; SD rats,51.91%
same,Tmax,"[7]; SD rats, oral administration, 10 mg/kg",5.33 ± 2.31 h
same,AUC(0-inf),[7]; [26],10400 ± 664 ng·h/mL
same,AUC(0-t),[7]; [26],7660 ± 329 ng·h/mL
same,Cmax,[7]; [26],980 ± 53.2 ng/mL
same,Tmax,[7]; [26],0.08 h
same,half-life,[7]; [26],12.7 ± 1.21 h
same,AUC(0-inf),[7]; [27],24500 ± 5810 ng·h/mL
same,AUC(0-t),[7]; [27],21600 ± 3950 ng·h/mL
same,Cmax,[7]; [27],1420 ± 161 ng/mL
same,half-life,[7]; [27],8.67 ± 0.05 h
same,IC50,[8],24 µM
same,IC50,[9],40 µM
same,IC50,[10],14.6 µM
same,IC50,[11],4.82 µM
same,IC50,[12],18.4 µM
same,IC50,"[13]; 293T, ~ = estimate, read-out: IC50",15.3 µM
same,IC50,[14],30 µM
same,IC50,[15],31.4 µM
same,IC50,[16],22 µM
same,IC50,[17],34.5 µM
same,IC50,[18],~34.7 µM
same,IC50,[19],12.8 µM
same,IC50,[20],~34.6 µM
same,IC50,[21],13.3 µM
same,IC50,[22],0.12 ± 0.03 µM
"CCS(=O)(=O)c1ccc(CC(=O)Nc2ccc(-c3ccc(C(O)(C(F)(F)F)C(F)(F)F)cc3F)cc2)cc1 [Example 2, 2-(4-(ethylsulfonyl)phenyl)-N-(2′-fluoro-4′-(1,1,1,3,3,3-hexafluoro-2-hydroxypropan-2-yl)-[1,1 1,1′-biphenyl]-4-yl)acetamide]",IC50,[23],14.5 ± 1.1 µM
same,IC50,[4],11.5 µM
same,IC50,[5],15 µM
same,IC50,[8],16 µM
same,IC50,[9],29 µM
same,IC50,[10],6.07 µM
same,IC50,[11],9.48 µM
same,IC50,[12],11.9 µM
same,IC50,[13],6.22 µM
same,IC50,[14],~31.9 µM
same,IC50,[15],25.1 µM
same,IC50,[16],7.08 µM
same,IC50,[17],15.9 µM
same,IC50,[18],~80 µM
same,IC50,[19],13 µM
same,IC50,[20],~50 µM
same,IC50,[21],10.5 µM
"O=C(Cc1ccc([N+](=O)[O-])cc1)Nc1ccc(-c2ccc(C(O)(C(F)(F)F)C(F)(F)F)cc2F)cc1 [Example 3, N-(2′-fluoro-4′-(1,1,1,3,3,3-hexafluoro-2-hydroxypropan-2-yl)-[1,1′-biphenyl]-4-yl)-2-(4-nitrophenyl)acetamide]",IC50,[1],1.49 µM
same,ΔTm,[3],6 °C
same,IC50,[6],4.85 ± 0.04 µM
"O=C(Cc1ccccc1[N+](=O)[O-])Nc1ccc(-c2ccc(C(O)(C(F)(F)F)C(F)(F)F)cc2F)cc1 [Example 4, N-(2′-fluoro-4′-(1,1,1,3,3,3-hexafluoro-2-hydroxypropan-2-yl)-[1,1′-biphenyl]-4-yl)-2-(2-nitrophenyl)acetamide]",IC50,[1],0.19 µM
same,Kd,[2],0.78 µM
same,ΔTm,[3],4.2 °C
same,IC50,[6],3.46 ± 1.32 µM
same,Cl,[7]; [25],5.4445 ± 1.543 mL/min/kg
same,Tmax,[7]; [25],0.19 ± 0.10 h
same,Vz,[7]; [25],3.42 ± 0.594 L/kg
same,F,[7]; SD rats,19%
same,AUC(0-inf),[7]; [26],6440 ± 1720 ng·h/mL
same,AUC(0-t),[7]; [26],3330 ± 495 ng·h/mL
same,Cmax,[7]; [26],839 ± 38.1 ng/mL
same,half-life,[7]; [26],7.67 ± 2.36 h
same,AUC(0-t),[7]; [27],3220 ± 781 ng·h/mL
same,Cmax,[7]; [27],721 ± 120 ng/mL
same,Tmax,[7]; [27],8 h
same,inhibitory rate on RORα,[24],37%
same,IC50,[24]; NA = no inhibitory effect,7.57 ± 0.01 µM
same,IC50,[22],0.19 ± 0.02 µM
"Nc1ccc(CC(=O)Nc2ccc(-c3ccc(C(O)(C(F)(F)F)C(F)(F)F)cc3F)cc2)cc1 [Example 5, 2-(4-aminophenyl)-N-(2′-fluoro-4′-(1,1,1,3,3,3-hexafluoro-2-hydroxypropan-2-yl)-[1,1′-biphenyl]-4-yl)acetamide]",IC50,[1],4.16 µM
same,ΔTm,[3],1.5 °C
same,IC50,[6],2.68 µM
"Nc1ccccc1CC(=O)Nc1ccc(-c2ccc(C(O)(C(F)(F)F)C(F)(F)F)cc2F)cc1 [Example 6, 2-(2-aminophenyl)-N-(2′-fluoro-4′-(1,1,1,3,3,3-hexafluoro-2-hydroxypropan-2-yl)-[1,1′-biphenyl]-4-yl)acetamide]",IC50,[1],0.96 µM
same,ΔTm,[3],1.5 °C
same,IC50,[6],5.17 µM
CCCCC(=O)Nc1ccc(-c2ccc(C(O)(C(F)(F)F)C(F)(F)F)cc2F)cc1 [Example 7],IC50,[1],4.17 µM
same,ΔTm,[3],6.3 °C
same,IC50,[6],10.2 ± 1.61 µM
